Source: patent publication US8470351B2, “Embedding antibiotic compounds in solid polymers” (The Research Foundation of the City University of New York, priority 2007, dated 2013)

How the values were obtained:
Escherichia coli = assay: Antimicrobial assessment of embedded polyester fabric on mineral salts agar; assay type: cell-based; conditions: agent embedded in three polyester fabrics ("144×90", "Spandex" 5% lycra with polyester, "Darlington"), incubated at 28° C. for 28 days
Protocol: (§1) Three types of polyester fabric are embedded with bis-1′,3′-(1-hexadecyl)-1,4-diazoniabicyclo[2.2.2]octane-2′-propanol tetrachloride. Three polyester samples supplied by Gar are tested—a) “144×90”, b) “Spandex” which is 5% lycra with polyester, and c) “Darlington.” Each fabric sample is placed onto a mineral salts agar medium and then inoculated with either Staphylococus aureus or Escherichia coli. The inoculated specimen is then incubated at 28° C. for 28 days, in order to allow adequate time for bacterial growth. The fabric samples show a complete kill of both Staphylococus aureus and Escherichia coli.

Staphylococus aureus = assay: as above; assay type: cell-based; conditions: agent embedded in three polyester fabrics ("144×90", "Spandex" 5% lycra with polyester, "Darlington"), incubated at 28° C. for 28 days
Protocol: as §1

[1] = Antimicrobial property of PVC surface with embedded agent; conditions: agent added to PVC heated to 350° F., 10 g/square meter of finished surface; after pressing and cooling
Protocol: To a preparation of PVC prepared for finishing and heated to 350° F. is added the agent bis-1′,3′-(1-hexadecyl)-1,4-diazoniabicyclo[2.2.2]octane-2′-propanol tetrachloride in an amount of 10 g/square meter of finished surface. After pressing and cooling samples the surface is antimicrobial.

## CCCCCCCCCCCCCCCC[N+]12CC[N+](CC(O)C[N+]34CC[N+](CCCCCCCCCCCCCCCC)(CC3)CC4)(CC1)CC2.[Cl-].[Cl-].[Cl-].[Cl-] (stereo not drawn) [bis-1′,3′-(1-hexadecyl)-1,4-diazoniabicyclo[2.2.2]octane-2′-propanol tetrachloride]
Escherichia coli
  kill of Escherichia coli on embedded fabric samples: complete kill
Staphylococus aureus
  kill of Staphylococus aureus on embedded fabric samples: complete kill
[1]
  antimicrobial property of the surface: antimicrobial
